“Also recorded” adds a separate entry of the source. Bounds are passed on as bounds.

The subject of one data set is TNFalpha. Briefly: TNFalpha ELISA of retina of diabetic rats. The format is in vivo, rat. The source says:
(§1) The other eye from each animal was used for protein analyses for inflammatory markers and insulin receptor signaling. Western blotting was done as described (9). Antibodies used were total insulin receptor beta (1:500, Cellular Signaling, Danvers, Mass.), phosphorylated insulin receptor beta (Tyr 1150/1151, 1:500, Cellular Signaling, Danvers, Mass.), total Akt (1:500, Cellular Signaling, Danvers, Mass.), and phosphorylated Akt (Ser 473, 1:500, Cellular Signaling, Danvers, Mass.). For analyses of the data, mean densitometry values were obtained using the Kodak 2.0 software. The ratio of phosphorylated protein was compared to levels of total protein.
To determine the TNF concentration (Pierce, Rockford Ill.) and levels of cleaved caspase 3 (Cellular Signaling, Danvers, Mass.), ELISA analyses were done according to manufacturers instructions, except that equal protein was loaded into the cleaved caspase 3 ELISA so the optical density numbers can be used.
On the technique in general: An ELISA detects its analyte on a solid surface through an enzyme-linked reagent.

The next data set has as its system Rat Müller cells (rMC-1). Briefly: TNFalpha and cleaved caspase 3 ELISA in Müller cells cultured in high glucose. The data set is classed as cell-based. As for the experimental part: Human retinal endothelial cells (HREC) were purchased from Cell Systems (Kirkland, Wash.) and grown in either basal (5 mM glucose) or growth (25 mM glucose) media. Both media is supplemented with 10% FBS and antibiotics. The day prior to experiments, cells are serum-starved for 18-24 hours. Rat Müller cells (rMC-1) were grown in DMEM medium with 5 mM glucose or 25 mM glucose. Media was supplemented with 10% FBS and antibiotics. Cells were serum starved prior to all experiments for 18-24 hours.
Human retinal endothelial cells (HREC) and rat Muller cells (rMC-1) in both glucose conditions were treated with Compound 2 at doses of 10 nM, 50 nM, 100 nM, 1 μM, and 10 μM of Compound 2. Cells of each type were grown in medium containing L-glucose to control for changes in osmolarity. 10 μM isoproterenol was also used for each condition as a positive control. Müller cells were treated for 1 hour and 24 hours, while HREC were treated for 30 and 60 minutes.
Following treatment, cells were collected into lysis buffer containing protease and phosphatase inhibitors. ELISA analyses for TNFalpha, cleaved caspase 3, and PKA were done according to manufacturers instructions. Data is compared against non-treated cells and cells at the various doses. A Kruskal-Wallis test is done, with a Dunn's test for secondary analyses. […] The dose that decreases TNFalpha and caspase 3 levels also increases PKA activity.

The next data set concerns Akt (Ser 473). The data set is described as follows: Western blot of phosphorylated Akt to total Akt in rat retina. To be noted: diabetic rats, daily 1 mM, retinal lysates. The format is in vivo.
Description: as §1
A general note: Immunoblotting shows a protein as a band on a membrane.

Data set [1] can be described thus: Plasma levels of Compound 2 after intravenous or topical administration to rats (LC/MS/MS). The format is in vivo. Particulars: rat. As to the method: B/PK was characterized following intravenous administration to rats. Following drug administration, blood samples (2-300 μL) were withdrawn from the jugular vein catheter at regular intervals after dosing (5, 15, 30, 45 minutes and 1, 2, 4, 8, 16, and 24 hours) into K3-EDTA anti-coagulated sampling tubes. Plasma was obtained by centrifugation and stored at −80° C. until analysis. The heart, lung and spleen were harvested in order to determine the tissue distribution of Compound 2. Cumulative urinary samples were collected over 24 hours post-dose and stored at −80° C. until analysis. B/PK was characterized following topical administration. Following drug administration to rats, eyes were enucleated, irrigated with saline, and vitreous humor aspirated from the inner region of the vitreous chamber using an 18-gauge needle. Blood samples were obtained simultaneously in order to determine the extent of systemic exposure following topical administration. Vitreous humor and blood samples were obtained at regular intervals after dosing. Time points were determined based upon concentration time profiles obtained following intravenous administration of Compound 2. For data analyses B/PK parameters were derived from the obtained plasma, vitreous humor, urine and feces concentration data by standard non-compartmental analysis. Terminal half-life was determined as the ratio of ln 2 divided by λz, the negative of the slope of the linear regression of the natural log concentration vs. time profile during the terminal phase. Systemic and ocular exposure was determined as plasma or ocular area under the concentration-time curve (AUC) using the trapezoidal rule. Compound 2 concentration determination and metabolite profiling is conducted using a validated LC/MS/MS assay based on the methodology described (14-15). The LC-MS/MS system comprises a Shimadzu HPLC system (Kyoto, Japan), API-4000 Q Trap tandem mass spectrometer (Foster City, Calif., USA) equipped with a turbo ion-spray and a HTC-PAL autosampler (Leap Technologies, Carrboro, N.C., USA).

Data set [2] can be described thus: Body weight, blood glucose, blood pressure and intraocular pressure in streptozotocin diabetic rats on eye drop therapy. The format is in vivo, rat.
Description: Male Lewis rats purchased from Charles River were used. Diabetic rats received a single injection of 60 mg/kg streptozotocin (Fisher, Pittsburgh, Pa.). […] All rats were weighed weekly and only rats with non-fasting blood glucose levels >250 mg/dl were considered diabetic. The designation of diabetic was made at the beginning of the experiments. Glucose was measured bimonthly. No insulin was administered to the rats at any time. To determine whether topical application of Compound 2 could reach the retina and elicit response, dose and time course studies were performed. For those studies, animals were made diabetic for 2 months using STZ. For 4 days, rats received a variety of doses of either Compound 2 (1 mM to 20 mM) or PBS once or twice each day. After the 4 days of eye drop treatment to both eyes, the diabetic and control animals were euthanized. […] After determining the optimal dose and time course for eye drop treatment for Compound 2, three groups of rats were used for this part of the study (control, diabetic (Diabetic), and diabetic+eye drop (Diab+2). Within 1 week of STZ-injection, 12 rats were put onto eye drop therapy. Rats on the eye drop therapy received a daily application of 4 drops of 1 mM Compound 2 to each eye. To verify that insulin levels were lost in the diabetic animals, insulin ELISA (Rat/Mouse Insulin ELISA kit, Linco, St. Charles, Mo.) was done on blood sampled from all rats at 2 months of age. Rats were sacrificed at 2 or 8 months of age. […] Analyses on the rats were done for acute changes (8 weeks of diabetes, 45 rats) and chronic changes (8 months of diabetes, 45 rats). […] Each month, all rats were tested for visual function: electroretinogram (ERG) and live retinal imaging were performed using Optical Coherence Topography (OCT). […] While the animals were asleep for ERG analyses, blood pressure and pulse were monitored to detect potential negative cardiovascular events.
The test system of data set [3] is retinal vasculature of hypoxic mice. The data set is described as follows: Oxygen-induced retinopathy model of proliferative diabetic retinopathy. The format is in vivo. To be noted: 1 mM eye drops once daily on days 13, 14, 15, sacrificed day 17. As to the method: A model of oxygen-induced retinopathy was used to determine the effects in vivo of Compound 2 on mice. Mice were placed into a chamber with 100% oxygen at day 7 of life. On day 12, they were removed from the chamber into normal air. The retina interprets this as hypoxia and starts angiogenesis. Mice were treated with 1 mM Compound 2 in eye drops once daily on days 13, 14, 15. Animals were sacrificed on day 17. FIGS. 19A-19 Retinal flat mounts were prepared.

The mark [4] stands for this setting: Müller cells in high glucose, 50 nM.
The mark [5] stands for this setting: diabetic rats, daily 1 mM Compound 2 eye drops, in mmHg (unit assumed).
Setting [6] is: following Compound 2 treatment, in words.

On to `COc1cc(CCNC[C@H](O)c2ccc(O)c(O)c2)cc(OC)c1OC.Cl` (single isomer, unassigned) [Compound 2, 4-[1-hydroxy-2-(1-ethylamino-3-,4-,5-trimethoxyphenyl)ethyl]benzene-1,2-diol hydrochloride], for which the “TNFalpha levels in retina, 8 months” value with TNFalpha (1 mM eye drops, 8 months) was “levels similar to Ctrl rats”. In the data set on TNFalpha (eye drop therapy), the “TNFα concentration throughout the treatment regimen” value is recorded as “effective in reducing TNFα concentration throughout the treatment regimen”. For the same compound, in the data set on Rat Müller cells (rMC-1) (setting [4]), the “reduction of TNFalpha levels compared to not-treated cells” value turned out to be 19% and the “reduction of caspase 3 compared to not-treated cells” value came to 55%. Besides, the “TNFalpha levels, in words” value with Rat Müller cells (rMC-1) (Müller cells in high glucose, 50 nM, vs non-treated) was “significantly reduced”. In the data set with Rat Müller cells (rMC-1) (Müller cells in high glucose, 50 nM, vs non-treated, hydrochloride), the “cleaved caspase 3 levels, in words” value was “significantly decreased caspase 3 levels in Müller cells at the 24-hour time point; also recorded: significantly reduced levels of cleaved caspase 3”. Moreover, the “dose for blockade of apoptosis and TNFalpha activity compared with isoproterenol” value in the data set with Rat Müller cells (rMC-1) (Müller cells, 50 nM Compound 2 vs. 10 μM isoproterenol) is listed as “significantly lower dose”. Moreover, in the data set with Akt (Ser 473), the “ratio of phosphorylated Akt to total Akt” value is recorded as “maintained the ratio of phosphorylated Akt at levels similar to control values”. The compound also registered a concentration at 45 min in data set [1] (Lewis, plasma, over 45 minutes, dose and route not stated) of roughly 6 ng/mL. The concentration at 1 h in data set [1] (plasma, intravenous or topical, 10 mg/kg, limit of detection, read-out: plasma level after 1 hour) was less than 2.5 ng/mL. The “time of clearance from plasma” value in data set [1] (intravenous, 1 mg/kg) is less than 1 h. In data set [1] (intravenous, 10 mg/kg), the plasma concentration is roughly 1000 ng/mL and the “time of clearing from plasma” value is no more than 30 min. Also, the “plasma concentration at the 2 time points with detection” value in data set [1] (topical, 10 mg/kg) was roughly 80 ng/mL. The “detection in plasma after topical delivery” value in data set [1] (topical, therapeutic dose 1 mM or 1 mg/kg, hydrochloride) is “did not result in detectable Compound 2 in plasma; also recorded: below the limits of detection; also recorded: not detected”. Moreover, the “Plasma concentration at start of decline” value in data set [1] (dose and route not stated) was “about 100 ng/ml”. Further, the “effect on body weight” value in data set [2] (daily administration of 1 mM, in words) is “did not affect”. In data set [2] (diabetic rats, daily 1 mM Compound 2 eye drops), this compound returned a Body wt of 248.7 ± 8.3 g. In data set [2] (setting [5]), the “BP Systolic” value stood at 104.8 ± 13.7 and the IOP was determined as 8.08 ± 1.17. In addition, in data set [2] (setting [6]), the “effect on blood pressure” value is “no observed effect” and the “effect on intraocular pressure” value is given as “no observed effect”. In data set [3], the “development of retinal vasculature (retinal flat mounts)” value was “the retina is much more developed and appears normal”.

These data come from patent publication US20120329879A1, “BETA-ADRENERGIC RECEPTOR AGONISTS AND USES THEREOF” (THE UNIVERSITY OF TENNESSEE RESEARCH FOUNDATION, priority 2010, published 2012).
